Results: ChEMBL document CHEMBL4007474, “Soluble epoxide hydrolase inhibitors of indolinone alkaloids and phenolic derivatives from Cimicifuga dahurica (Turcz.) Maxim” (Bioorg Med Chem Lett, 2017)
The source made the active and inactive calls. The calls are words filed in the database; no cut-off is given here.

Key:
[1] = molecular target: T1, Bifunctional epoxide hydrolase 2 (Homo sapiens) (UniProt P34913); assay: Inhibition of sEH (unknown origin) at 100 uM using PHOME as substrate after 40 mins by fluorescence photometric method relative to control
T1 sequence (whole entry): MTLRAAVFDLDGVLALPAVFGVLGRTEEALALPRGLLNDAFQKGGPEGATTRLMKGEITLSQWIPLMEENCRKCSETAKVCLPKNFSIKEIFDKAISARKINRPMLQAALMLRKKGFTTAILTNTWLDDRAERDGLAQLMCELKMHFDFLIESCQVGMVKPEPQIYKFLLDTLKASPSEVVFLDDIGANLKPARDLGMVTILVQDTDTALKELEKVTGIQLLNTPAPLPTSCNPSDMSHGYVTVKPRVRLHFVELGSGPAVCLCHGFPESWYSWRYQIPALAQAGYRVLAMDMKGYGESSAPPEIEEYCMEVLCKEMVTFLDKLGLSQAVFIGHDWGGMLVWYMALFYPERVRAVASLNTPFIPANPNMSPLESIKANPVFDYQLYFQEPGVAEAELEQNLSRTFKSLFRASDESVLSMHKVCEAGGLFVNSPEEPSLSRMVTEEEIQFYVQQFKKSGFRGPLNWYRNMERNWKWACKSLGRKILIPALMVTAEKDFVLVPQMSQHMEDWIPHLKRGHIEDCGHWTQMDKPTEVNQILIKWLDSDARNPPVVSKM

[2] = molecular target: T1, Bifunctional epoxide hydrolase 2 (Homo sapiens); assay: (§1) Inhibition of sEH (unknown origin) using PHOME as substrate after 40 mins by fluorescence photometric method
[3] = molecular target: T2, Bifunctional epoxide hydrolase 2 (Homo sapiens, UniProt P34913); assay: as §1
T2 sequence (P34913 whole entry): T1 sequence (whole entry)

[4] = molecular target: T1, Bifunctional epoxide hydrolase 2 (Homo sapiens); assay: Competitive inhibition of sEH (unknown origin) at 0.78 to 6.25 uM using PHOME as substrate measured for 30 mins by Lineweaver-burk plot method
[5] = molecular target: T1, Bifunctional epoxide hydrolase 2 (Homo sapiens); assay: Mixed type inhibition of sEH (unknown origin) at 0.78 to 6.25 uM using PHOME as substrate measured for 30 mins by Lineweaver-burk plot method
[6] = molecular target: T1, Bifunctional epoxide hydrolase 2 (Homo sapiens); conditions: 0.78 to 6.25 uM

Compound | inhibition [1] | inhibition [2] | IC50 [3] | inhibition [4] | inhibition [5] | inhibition [6]
COc1ccc(/C=C/C(=O)OCC(=O)c2ccc(O)c(O)c2)cc1O | 98.3% | Dose-dependent effect | 1.6 µM | – | Active | –
O=C(/C=C/c1ccc(O)c(O)c1)O[C@@H]1C[C@](O)(C(=O)O)C[C@@H](OC(=O)/C=C/c2ccc(O)c(O)c2)[C@H]1O | 81.3% | Dose-dependent effect | 2.8 µM | – | Active | –
COc1ccc(/C=C/C(=O)OCC(=O)Cc2ccc(O)c(O)c2)cc1O [CIMIRACEMATE A] | 104% | Dose-dependent effect | 1.1 µM | – | – | Active

Next, values leading:

inhibition [1] | inhibition [2] | IC50 [3] | inhibition [4] | inhibition [5] | inhibition [6] | Compound
77% | Dose-dependent effect | 1.3 µM | Active | – | – | CC(C)=C/C=C1\C(=O)N(C)c2ccccc21
95.1% | Dose-dependent effect | 1 µM | Active | – | – | CC(C)=C/C=C1/C(=O)Nc2ccccc21
99.2% | Dose-dependent effect | 1.8 µM | – | Active | – | COC(=O)/C=C/c1ccc(O)c(OC)c1
80.2% | Dose-dependent effect | 0.8 µM | Active | – | – | CC(C)=C/C=C1/C(=O)N(C)c2ccccc21
